Columns and labels:
Assay in all cases: relative viability (nuclei count vs DMSO), 5 days (fraction); higher = more cells survive
[1] = system: NCI-H2023
How it was run: (§1)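 Lung cancer cell lines in 1536-well plates were dosed by pin tool the day after seeding, either with one drug alone or with a fixed anchor-drug dose plus five library-drug doses (not always all listed) in √10 steps. After 5 days, cells were fixed and their nuclei stained in one step (final 0.05% Triton X-100, 1% formaldehyde, 1 ug/ml Hoechst), then counted on 4× images. Relative viability is the nuclei count in treated wells divided by that in vehicle wells. Values are medians of duplicate plates.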

[2] = system: NCI-H2009
How it was run: as §1

[3] = system: SK-LU-1
How it was run: as §1

[4] = system: NCI-H661
How it was run: as §1

[5] = system: H3255
How it was run: as §1

[6] = system: LCLC-97TM1
How it was run: as §1

[7] = system: EMC-BAC-2
How it was run: as §1

[8] = system: LXF-289
How it was run: as §1

[9] = system: NCI-H727
How it was run: as §1

[10] = system: NCI-H1993
How it was run: as §1

[11] = system: NCI-H2126
How it was run: as §1

[12] = system: NCI-H647
How it was run: as §1

[13] = system: HOP-62
How it was run: as §1

[14] = system: EPLC-272H
How it was run: as §1

[15] = system: NCI-H2347
How it was run: as §1

[16] = system: NCI-H1915
How it was run: as §1

[17] = system: PC-14
How it was run: as §1

[18] = system: SW 1573
How it was run: as §1

[19] = system: NCI-H2085
How it was run: as §1

[20] = system: NCI-H1734
How it was run: as §1

[21] = system: NCI-H322M
How it was run: as §1

Compound `CCN(CC)CCCCNc1ncc2cc(-c3cc(OC)cc(OC)c3)c(NC(=O)NC(C)(C)C)nc2n1` + Nc1ncn([C@H]2C[C@H](O)[C@@H](CO)O2)c(=O)n1 [Decitabine] (partner 2 µM) has a relative viability ([1]; first compound 0.01 µM) of 0.221, a relative viability ([1]; first compound 0.03162 µM) of 0.268 and a relative viability ([1]; first compound 0.1 µM) of 0.232. It also gave a relative viability ([1]; first compound 0.3162 µM) of 0.236, a relative viability ([1]; first compound 1 µM) of 0.206 and a relative viability ([2]; first compound 0.01 µM) of 0.401. For the same compound, the relative viability ([2]; first compound 0.03162 µM) was 0.39, the relative viability ([2]; first compound 0.1 µM) was 0.35 and the relative viability ([2]; first compound 0.3162 µM) was 0.387. It also gave a relative viability ([2]; first compound 1 µM) of 0.365, a relative viability ([3]; first compound 0.01 µM) of 0.628 and a relative viability ([3]; first compound 0.03162 µM) of 0.608. It also gave a relative viability ([3]; first compound 0.1 µM) of 0.59, a relative viability ([3]; first compound 0.3162 µM) of 0.705 and a relative viability ([3]; first compound 1 µM) of 0.448. The relative viability ([4]; first compound 0.01 µM) was 0.534, the relative viability ([4]; first compound 0.03162 µM) was 0.529 and the relative viability ([4]; first compound 0.1 µM) was 0.572. It also gave a relative viability ([4]; first compound 0.3162 µM) of 0.573, a relative viability ([4]; first compound 1 µM) of 0.455 and a relative viability ([5]; first compound 0.01 µM) of 0.453. The relative viability ([5]; first compound 0.1 µM) was 0.65, the relative viability ([5]; first compound 0.3162 µM) was 0.712 and the relative viability ([5]; first compound 1 µM) was 0.448. The relative viability ([6]; first compound 0.01 µM) was 0.269, the relative viability ([6]; first compound 0.03162 µM) was 0.251 and the relative viability ([6]; first compound 0.1 µM) was 0.321. For the same compound, the relative viability ([6]; first compound 0.3162 µM) was 0.272, the relative viability ([6]; first compound 1 µM) was 0.255 and the relative viability ([7]; first compound 0.03162 µM) was 1. For the same compound, the relative viability ([7]; first compound 0.1 µM) was 0.938, the relative viability ([7]; first compound 0.3162 µM) was 0.948 and the relative viability ([7]; first compound 1 µM) was 0.876. The relative viability ([8]; first compound 0.01 µM) was 0.336, the relative viability ([8]; first compound 0.03162 µM) was 0.364 and the relative viability ([8]; first compound 0.1 µM) was 0.363. It also gave a relative viability ([8]; first compound 0.3162 µM) of 0.424, a relative viability ([8]; first compound 1 µM) of 0.377 and a relative viability ([9]; first compound 0.01 µM) of 0.752. The relative viability ([9]; first compound 0.03162 µM) was 0.871, the relative viability ([9]; first compound 0.1 µM) was 0.871 and the relative viability ([9]; first compound 0.3162 µM) was 1.09. For the same compound, the relative viability ([9]; first compound 1 µM) was 0.717, the relative viability ([10]; first compound 0.01 µM) was 0.671 and the relative viability ([10]; first compound 0.03162 µM) was 0.584. For the same compound, the relative viability ([10]; first compound 0.1 µM) was 0.508, the relative viability ([10]; first compound 0.3162 µM) was 0.757 and the relative viability ([10]; first compound 1 µM) was 0.589. It also gave a relative viability ([11]; first compound 0.01 µM) of 0.555, a relative viability ([11]; first compound 0.03162 µM) of 0.568 and a relative viability ([11]; first compound 0.1 µM) of 0.556. For the same compound, the relative viability ([11]; first compound 0.3162 µM) was 0.603, the relative viability ([11]; first compound 1 µM) was 0.63 and the relative viability ([12]; first compound 0.01 µM) was 0.429. The relative viability ([12]; first compound 0.03162 µM) was 0.383, the relative viability ([12]; first compound 0.1 µM) was 0.489 and the relative viability ([12]; first compound 0.3162 µM) was 0.349. For the same compound, the relative viability ([12]; first compound 1 µM) was 0.361, the relative viability ([13]; first compound 0.01 µM) was 0.243 and the relative viability ([13]; first compound 0.03162 µM) was 0.207. The relative viability ([13]; first compound 0.1 µM) was 0.208, the relative viability ([13]; first compound 0.3162 µM) was 0.207 and the relative viability ([13]; first compound 1 µM) was 0.268. It also gave a relative viability ([14]; first compound 0.01 µM) of 0.384, a relative viability ([14]; first compound 0.1 µM) of 0.359 and a relative viability ([14]; first compound 0.3162 µM) of 0.378. It also gave a relative viability ([14]; first compound 1 µM) of 0.331, a relative viability ([15]; first compound 0.01 µM) of 0.573 and a relative viability ([15]; first compound 0.03162 µM) of 0.62. For the same compound, the relative viability ([15]; first compound 0.1 µM) was 0.623, the relative viability ([15]; first compound 0.3162 µM) was 0.626 and the relative viability ([15]; first compound 1 µM) was 0.578. For the same compound, the relative viability ([16]; first compound 0.01 µM) was 0.24, the relative viability ([16]; first compound 0.03162 µM) was 0.243 and the relative viability ([16]; first compound 0.1 µM) was 0.256. For the same compound, the relative viability ([16]; first compound 0.3162 µM) was 0.242, the relative viability ([16]; first compound 1 µM) was 0.266 and the relative viability ([17]; first compound 0.01 µM) was 0.239. For the same compound, the relative viability ([17]; first compound 0.03162 µM) was 0.298, the relative viability ([17]; first compound 0.1 µM) was 0.262 and the relative viability ([17]; first compound 0.3162 µM) was 0.249. For the same compound, the relative viability ([17]; first compound 1 µM) was 0.228, the relative viability ([18]; first compound 0.01 µM) was 0.441 and the relative viability ([18]; first compound 0.03162 µM) was 0.528. It also gave a relative viability ([18]; first compound 0.1 µM) of 0.583, a relative viability ([18]; first compound 0.3162 µM) of 0.591 and a relative viability ([18]; first compound 1 µM) of 0.435. The relative viability ([19]; first compound 0.01 µM) was 0.559, the relative viability ([19]; first compound 0.03162 µM) was 0.603 and the relative viability ([19]; first compound 0.1 µM) was 0.564. For the same compound, the relative viability ([19]; first compound 0.3162 µM) was 0.533, the relative viability ([19]; first compound 1 µM) was 0.549 and the relative viability ([20]; first compound 0.01 µM) was 0.485. It also gave a relative viability ([20]; first compound 0.03162 µM) of 0.372, a relative viability ([20]; first compound 0.1 µM) of 0.534 and a relative viability ([20]; first compound 0.3162 µM) of 0.473. The relative viability ([20]; first compound 1 µM) was 0.475, the relative viability ([21]; first compound 0.01 µM) was 0.691 and the relative viability ([21]; first compound 0.03162 µM) was 0.767. For the same compound, the relative viability ([21]; first compound 0.1 µM) was 0.687, the relative viability ([21]; first compound 0.3162 µM) was 0.696 and the relative viability ([21]; first compound 1 µM) was 0.663.
